{
  "source": "patent US12279855B2",
  "about": "“Highly-timed resolved myocardial blood-oxygen-level-dependent magnetic resonance imaging” (Cedars-Sinai Medical Center, priority 2018, dated 2025)",
  "key": {"[1]": {"conditions": "extended vasodilatory state, cited from earlier work"}, "[2]": {"system": "Anesthetized dogs (intact; with chronic myocardial infarction), myocardium", "experiment": "Beat-to-beat cardiac BOLD MRI at 3T before and after regadenoson injection", "format": "in vivo, dog", "protocol": "FIG. 2A-FIG. 2F depicts in accordance with various embodiments of the invention, dynamics of BOLD response at rest and under the influence of regadenoson. BOLD response was relatively flat (fluctuated within +/−5%) throughout the measurement at rest (FIG. 2A), but peaks at 2-3 minutes after regadenoson injection to 10-15% and then plateaus after 4 minutes of injection (FIG. 2B). […] BOLD response was relatively flat in Remote and Affected territories at rest (FIG. 2D). However, under the influence of regadenoson (FIG. 2E), the BOLD response remained flat in Affected myocardium, while there was a delayed but rising BOLD response in Remote myocardium peaking at approximately 5 minutes was observed (FIG. 2E). The corresponding LGE image (with evidence of infarction) of the slice and where BOLD responses were measured are shown in FIG. 2F.\nMethods. The proposed cardiac BOLD MRI approach was developed based on a LRT formalism (acquisition and reconstruction) that was previously used for ungated cardiac T1 mapping. It is composed of 3 parts: (i) adiabatic T2 preparation that is repeated at a fixed interval to ensure consistent T2 weighting; (ii) repeat acquisition of a set of central k-space lines with GRE readout every other TR to serve as respiratory and cardiac navigators for reconstruction; and (iii) interleaving of a set of golden-ratio radial GRE readout lines with the navigator lines serving as LRT training data. In brief, we modeled a high-dimensional cardiac image space (cardiac motion (Uc), respiratory motion (Ur), T1 recovery time (Ut), and time after excitation (Ut)) as a low-rank tensor that is partially separable. The complete tensors of all subspaces were recovered from the frequently sampled navigator signal using LRT completion. Subsequently cardiac and respiratory phased-resolved, beat-to-beat cardiac BOLD images were reconstructed. Anesthetized dogs (intact, n=2; and with chronic myocardial infarction, n=2) underwent continuous acquisition in a 3T MRI system (Siemens, Verio) that began 1-minute prior to regadenoson injection ([…]; duration of injection=30 sec) and ended 6 minutes after regadenoson injection. The data acquisition and reconstruction schemes are illustrated in FIG. 1. Sequence parameters were: scan time: 6 mins, delay between T2prep=800 ms; TE (T2prep time)=60 ms; GRE readout (TE/TR=1.4/3.3 ms, flip angle=12°, FOV=270×270 mm2, in-plane resolution: 1.7×1.7 mm2, 1 slice of thickness: 6 mm).\nResults. […] LGE images show the region where the BOLD responses were measured. […] In animals with chronic MI (FIG. 2D, FIG. 2E and FIG. 2F), rest BOLD Response was also relatively stable in the infarcted and remote myocardium. However, following regadenoson injection, there was no response in the affected (infarcted) myocardium; but in the remote myocardium, a noticeably delayed hyperemic BOLD Response was observed (compared to intact animals), which peaked ˜5 minutes after regadenoson injection and plateaued to above 25%."}, "[3]": {"conditions": "intact animal, healthy myocardium, regadenoson 2.5 mg/kg over 30 sec"}},
  "note": "Entries after “also recorded” stand apart in the source; their conditions may differ. Read-outs that look alike come from different tables or passages of the source.",
  "data": [
    {"smiles": "Nc1nc(N/N=C/C2CCCCC2)nc2c1ncn2[C@@H]1O[C@H](CO)[C@@H](O)[C@H]1O", "note": "[binodenoson]", "values": [
      {"measurement": "terminal half-life", "setting": "[1]; literature references", "result": "10 to 120", "unit": "min"}
    ]},
    {"smiles": "OCCN(CCO)c1nc(N2CCCCC2)c2nc(N(CCO)CCO)nc(N3CCCCC3)c2n1", "note": "[dipyridamole]", "values": [
      {"measurement": "terminal half-life", "setting": "[1]; range printed in mixed units (min to hours), literature reference", "result": "40 to 600", "unit": "min"}
    ]},
    {"smiles": "CNC(=O)c1cnn(-c2nc(N)c3ncn([C@@H]4O[C@H](CO)[C@@H](O)[C@H]4O)c3n2)c1", "note": "[regadenoson]", "values": [
      {"measurement": "BOLD response in Affected (infarcted) myocardium", "setting": "[2]; animal with chronic MI, affected territory, regadenoson 2.5 mg/kg over 30 sec", "result": "remained flat; also recorded: no response"},
      {"measurement": "plateau of BOLD Response in Remote myocardium", "setting": "[2]; animal with chronic MI, remote territory, regadenoson 2.5 mg/kg over 30 sec", "result": "above 25%"},
      {"measurement": "plateau of normalized BOLD Response", "setting": "[2]; [3]", "result": "more than 10%"},
      {"measurement": "time after injection at which BOLD response plateaus", "setting": "[2]; [3]", "result": 4, "unit": "min"},
      {"measurement": "time over which BOLD response rises / peaks after regadenoson injection", "setting": "[2]; [3]", "result": "2 to 3", "unit": "min"},
      {"measurement": "BOLD response at peak after regadenoson injection", "setting": "[2]; intact animal, healthy myocardium, regadenoson injection 2.5 mg/kg over 30 sec, normalized BOLD response", "result": "10-15%"},
      {"measurement": "terminal half-life", "setting": "[1]; literature references", "result": "33 to 108", "unit": "min"}
    ]}
  ]
}
